In patent publication US8999976B2, “Modulators of cystic fibrosis transmembrane conductance regulator” (Vertex Pharmaceuticals Incorporated, priority 2008, dated 2015):

Biological target: T1, ΔF508-CFTR (Homo sapiens, UniProt P13569, DEL508-508)
T1 construct: expressed in transfected cells
Assay: Membrane potential optical assay for potentiators of ΔF508-CFTR (FLIPR III, voltage sensing dyes)
Assay type: cell-based
Conditions: for Emax: NIH3T3, 100% efficacy is the maximum response obtained with 4-methyl-2-(5-phenyl-1H-pyrazol-3-yl)phenol, ΔF508 CFTR NIH 3T3 cells; for EC50: temperature-corrected ΔF508 CFTR NIH 3T3 cells, forskolin activation
Source text: The assay utilizes fluorescent voltage sensing dyes to measure changes in membrane potential using a fluorescent plate reader (e.g., FLIPR III, Molecular Devices, Inc.) as a readout for increase in functional ΔF508-CFTR in NIH 3T3 cells.
To identify potentiators of ΔF508-CFTR, a double-addition HTS assay format was developed. This HTS assay utilizes fluorescent voltage sensing dyes to measure changes in membrane potential on the FLIPR III as a measurement for increase in gating (conductance) of ΔF508 CFTR in temperature-corrected ΔF508 CFTR NIH 3T3 cells.
Solutions • Bath Solution #1: (in mM) NaCl 160, KCl 4.5, CaCl2 2, MgCl2 1, HEPES 10, pH 7.4 with NaOH. • Chloride-Free Bath Solution: Chloride Salts in Bath Solution #1 are Substituted with Gluconate Salts.
NIH3T3 mouse fibroblasts stably expressing ΔF508-CFTR are used for optical measurements of membrane potential. The cells are maintained at 37° C. in 5% CO2 and 90% humidity in Dulbecco's modified Eagle's medium supplemented with 2 mM glutamine, 10% fetal bovine serum, 1×NEAA, β-ME, 1×pen/strep, and 25 mM HEPES in 175 cm^2 culture flasks. For all optical assays, the cells were seeded at ˜20,000/well in 384-well matrigel-coated plates and cultured for 2 hrs at 37° C. before culturing at 27° C. for 24 hrs. for the potentiator assay. For the correction assays, the cells are cultured at 27° C. or 37° C. with and without compounds for 16-24 hours. Electrophysiological Assays for assaying ΔF508-CFTR modulation properties of compounds.

T1 sequence (P13569 with tags, fused parts or gaps DEL508-508): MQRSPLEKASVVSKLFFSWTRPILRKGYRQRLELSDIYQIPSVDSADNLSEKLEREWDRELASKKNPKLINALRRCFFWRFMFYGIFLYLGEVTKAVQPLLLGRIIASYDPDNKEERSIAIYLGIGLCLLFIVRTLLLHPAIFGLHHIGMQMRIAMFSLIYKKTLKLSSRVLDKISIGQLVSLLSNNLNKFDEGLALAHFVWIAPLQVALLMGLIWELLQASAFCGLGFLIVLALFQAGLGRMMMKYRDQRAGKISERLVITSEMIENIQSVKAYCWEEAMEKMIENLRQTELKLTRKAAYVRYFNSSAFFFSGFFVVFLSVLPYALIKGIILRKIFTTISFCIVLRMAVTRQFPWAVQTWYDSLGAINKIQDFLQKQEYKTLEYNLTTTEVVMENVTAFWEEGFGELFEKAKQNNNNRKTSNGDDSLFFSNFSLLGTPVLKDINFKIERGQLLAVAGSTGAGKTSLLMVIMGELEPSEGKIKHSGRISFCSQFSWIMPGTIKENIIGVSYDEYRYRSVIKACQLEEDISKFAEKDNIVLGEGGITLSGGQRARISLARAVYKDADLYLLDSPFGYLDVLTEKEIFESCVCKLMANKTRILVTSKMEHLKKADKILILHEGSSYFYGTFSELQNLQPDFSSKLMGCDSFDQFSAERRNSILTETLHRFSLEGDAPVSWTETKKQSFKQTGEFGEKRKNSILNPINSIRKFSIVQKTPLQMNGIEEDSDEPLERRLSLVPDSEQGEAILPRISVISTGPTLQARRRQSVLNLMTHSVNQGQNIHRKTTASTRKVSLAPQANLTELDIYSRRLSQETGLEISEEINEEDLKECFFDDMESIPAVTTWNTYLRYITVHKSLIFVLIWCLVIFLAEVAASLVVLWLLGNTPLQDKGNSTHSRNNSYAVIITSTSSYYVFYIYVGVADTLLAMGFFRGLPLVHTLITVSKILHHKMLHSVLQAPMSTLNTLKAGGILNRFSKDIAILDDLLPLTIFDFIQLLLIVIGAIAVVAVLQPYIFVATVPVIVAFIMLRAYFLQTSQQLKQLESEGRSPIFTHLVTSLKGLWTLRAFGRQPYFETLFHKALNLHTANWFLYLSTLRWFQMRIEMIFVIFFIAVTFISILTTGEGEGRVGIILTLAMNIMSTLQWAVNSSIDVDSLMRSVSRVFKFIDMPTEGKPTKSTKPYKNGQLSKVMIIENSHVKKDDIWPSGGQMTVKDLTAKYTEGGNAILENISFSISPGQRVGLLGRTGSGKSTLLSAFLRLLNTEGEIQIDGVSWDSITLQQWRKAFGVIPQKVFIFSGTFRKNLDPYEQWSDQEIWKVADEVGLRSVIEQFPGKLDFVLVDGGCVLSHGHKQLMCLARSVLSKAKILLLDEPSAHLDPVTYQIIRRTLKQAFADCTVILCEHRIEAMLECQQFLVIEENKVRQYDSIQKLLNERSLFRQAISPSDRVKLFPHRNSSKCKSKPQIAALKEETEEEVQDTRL

Row | Emax [%] | EC50 [µM] | Structure (SMILES)
1 | 25 to 100 | < 5 | Cc1ccc2c(c1)OC(C(=O)Nc1cc(O)c(C3(C)CCCCC3)cc1F)CN2 (centres unmarked) [Compound 2]
2 | < 25 | 5 to 20 | CCN1CCN(c2cc(C3CCCC3)c(O)cc2NC(=O)C2CNc3cc(C#N)ccc3O2)CC1 (centres unmarked) [Compound 10]
3 | 25 to 100 | < 5 | CCc1cc(F)c(NC(=O)C2CNc3ccc(F)cc3O2)cc1O (centres unmarked) [Compound 20]
4 | > 100 | < 5 | O=C(Nc1cc(O)c(C2CCCC2)cc1C#CCN1CCCC1)C1CNc2cc(OC(F)(F)F)ccc2O1 (centres unmarked) [Compound 22]
5 | 25 to 100 | < 5 | Cc1ccc(NC(=O)C2CNc3cc(OC(F)(F)F)ccc3O2)c(C#CCN(C)C)c1 (centres unmarked) [Compound 26]
6 | 25 to 100 | < 5 | O=C(Nc1ccc(C2CC2)c(O)c1)C1CNc2ccccc2O1 (centres unmarked) [Compound 27]
7 | 25 to 100 | 5 to 20 | COc1cc(NC(=O)C2CNc3ccccc3O2)ccc1-n1c(C)ccc1C (centres unmarked) [Compound 28]
8 | < 25 | 5 to 20 | CN1CCN(c2cc(C3CCCC3)c(O)cc2NC(=O)C2CNc3cc(C#N)ccc3O2)CC1 (centres unmarked) [Compound 29]
9 | 25 to 100 | 5 to 20 | O=C(Nc1ccc2c(C(F)(F)F)c[nH]c2c1)C1CNc2ccccc2O1 (centres unmarked) [Compound 30]
10 | 25 to 100 | < 5 | O=C(Nc1cc(O)c(C2CCCC2)cc1C(F)(F)F)C1CNc2ccc(F)cc2O1 (centres unmarked) [Compound 31]
11 | 25 to 100 | < 5 | O=C(Nc1cc(O)c(C2CCCC2)cc1C(F)(F)F)[C@H]1CNc2cc(OC(F)(F)F)ccc2O1 [Compound 32]
12 | 25 to 100 | < 5 | CC(C)(C)c1ccc(NC(=O)C2CNc3cccc(F)c3O2)cc1O (centres unmarked) [Compound 33]
13 | 25 to 100 | < 5 | CN(C)CC#Cc1cc(C2CCCC2)c(O)cc1NC(=O)C1CNc2cc(C#N)ccc2O1 (centres unmarked) [Compound 34]
14 | 25 to 100 | < 5 | CN(C)CC#Cc1cc(C2CCCC2)c(O)cc1NC(=O)[C@@H]1CNc2ccccc2O1 [Compound 37]
15 | 25 to 100 | < 5 | N#Cc1ccc2c(c1)NCC(C(=O)Nc1cc(O)c(C3CCCC3)cc1C(F)(F)F)O2 (centres unmarked) [Compound 39]
16 | > 100 | < 5 | CCc1ccc(NC(=O)C2CNc3cc(OC(F)(F)F)ccc3O2)c(C#CCN(C)C)c1 (centres unmarked) [Compound 44]
17 | > 100 | < 5 | CC1CCN(Cc2cc(C3CCCC3)c(O)cc2NC(=O)C2CNc3ccccc3O2)CC1 (centres unmarked) [Compound 46]
18 | 25 to 100 | < 5 | N#Cc1cc(C2CCCC2)c(O)cc1NC(=O)[C@@H]1CNc2ccc(F)cc2O1 [Compound 50]

The remaining lines, values behind:

Row | Structure (SMILES) | Emax [%] | EC50 [µM]
19 | COc1ccc2c(c1)OC(C(=O)Nc1ccc(C(C)(C)C)c(O)c1)CN2 (centres unmarked) [Compound 1] | < 25 | 5 to 20
20 | O=C(Nc1cc(O)c(C2CCCC2)cc1CN1CCCCC1)C1CNc2ccccc2O1 (centres unmarked) [Compound 3] | 25 to 100 | < 5
21 | CCOC(=O)CCc1cc(C2CCCC2)c(O)cc1NC(=O)C1CNc2cc(OC(F)(F)F)ccc2O1 (centres unmarked) [Compound 4] | > 100 | < 5
22 | O=C(Nc1ccc(C(F)(F)F)c(O)c1)C1CNc2ccccc2O1 (centres unmarked) [Compound 5] | < 25 | 5 to 20
23 | Cc1cc2c(cc1F)NCC(C(=O)Nc1cc(O)c(C(C)(C)C)cc1C(C)(C)C)O2 (centres unmarked) [Compound 6] | 25 to 100 | < 5
24 | Cc1cc(C#CCN(C)C)c(NC(=O)C2CNc3cc(OC(F)(F)F)ccc3O2)cc1O (centres unmarked) [Compound 7] | 25 to 100 | < 5
25 | CC(C)(C)c1cc(C(C)(C)C)c(NC(=O)C2CNc3cc(F)c(F)cc3O2)cc1O (centres unmarked) [Compound 8] | 25 to 100 | < 5
26 | Cc1ccc(NC(=O)C2CNc3cc(OC(F)(F)F)ccc3O2)c(C#CCN2CCC(F)(F)CC2)c1 (centres unmarked) [Compound 9] | 25 to 100 | < 5
27 | N#Cc1ccc2c(c1)NCC(C(=O)Nc1cc(O)c(C3CCCC3)cc1C1=CCNCC1)O2 (centres unmarked) [Compound 11, 6-cyano-N-(4-cyclopentyl-5-hydroxy-2-(1,2,3,6-tetrahydropyridin-4-yl)phenyl)-3,4-dihydro-2H-benzo[b][1,4]oxazine-2-carboxamide] | 25 to 100 | 5 to 20
28 | O=C(Nc1cc(O)c(C2CCCC2)cc1C#CCO)C1CNc2cc(OC(F)(F)F)ccc2O1 (centres unmarked) [Compound 12] | 25 to 100 | < 5
29 | CC(C)(C)c1cc(C2CCCC2)c(O)cc1NC(=O)[C@H]1CNc2cc(C#N)ccc2O1 [Compound 13] | > 100 | < 5
30 | COc1ccc2c(c1)NCC(C(=O)Nc1ccc(C(C)(C)C)c(O)c1)O2 (centres unmarked) [Compound 14] | < 25 | 5 to 20
31 | Cc1cc(C)c(NC(=O)C2CNc3cc(OC(F)(F)F)ccc3O2)c(C#CCN(C)C)c1 (centres unmarked) [Compound 15] | 25 to 100 | < 5
32 | O=C(O)CCc1cc(C2CCCC2)c(O)cc1NC(=O)C1CNc2cc(OC(F)(F)F)ccc2O1 (centres unmarked) [Compound 16] | 25 to 100 | < 5
33 | N#Cc1cc(C2CCCC2)c(O)cc1NC(=O)[C@H]1CNc2ccc(F)cc2O1 [Compound 17] | 25 to 100 | < 5
34 | CC1(c2cc(F)c(NC(=O)C3CNc4cc(F)ccc4O3)cc2O)CCCCC1 (centres unmarked) [Compound 18] | 25 to 100 | < 5
35 | CC1(c2cc(F)c(NC(=O)[C@@H]3CNc4ccccc4O3)cc2O)CCCCC1 [Compound 19] | 25 to 100 | < 5
36 | Cc1cc(C2CCCC2)c(O)cc1NC(=O)C1CNc2ccc(F)cc2O1 (centres unmarked) [Compound 21] | 25 to 100 | < 5

Row | Structure (SMILES) | Emax [%] | EC50 [µM]
37 | N#Cc1cc(C2CCCC2)c(O)cc1NC(=O)C1CNc2ccc(F)cc2O1 (centres unmarked) [Compound 23] | 25 to 100 | < 5
38 | O=C(O)Cc1cc(C2CCCC2)c(O)cc1NC(=O)C1CNc2cc(OC(F)(F)F)ccc2O1 (centres unmarked) [Compound 24] | > 100 | < 5
39 | Cc1cc(C2CCCC2)c(O)cc1NC(=O)[C@@H]1CNc2cc(C#N)ccc2O1 [Compound 25] | 25 to 100 | < 5
40 | CC(C)(C)c1ccc(NC(=O)C2CNc3ccc(F)cc3O2)cc1O (centres unmarked) [Compound 35] | 25 to 100 | < 5
41 | Cc1cc(C#CCN(C)C)c(NC(=O)C2CNc3ccccc3O2)cc1F (centres unmarked) [Compound 36] | 25 to 100 | 5 to 20
42 | CN(C)CCCc1cc(C2CCCC2)c(O)cc1NC(=O)C1CNc2cc(OC(F)(F)F)ccc2O1 (centres unmarked) [Compound 38, N-(4-cyclopentyl-2-(3-(dimethylamino)propyl)-5-hydroxyphenyl)-6-(trifluoromethoxy)-3,4-dihydro-2H-benzo[b][1,4]oxazine-2-carboxamide] | 25 to 100 | < 5
43 | NCC#Cc1cc(C2CCCC2)c(O)cc1NC(=O)C1CNc2cc(OC(F)(F)F)ccc2O1 (centres unmarked) [Compound 40] | 25 to 100 | < 5
44 | Cc1cnc(NC(=O)C2CNc3cc(OC(F)(F)F)ccc3O2)c(C#CCN(C)C)c1 (centres unmarked) [Compound 41] | 25 to 100 | < 5
45 | CC(C)Oc1ccc(NC(=O)C2CNc3ccc(F)cc3O2)cc1O (centres unmarked) [Compound 42] | < 25 | 5 to 20
46 | CN(C)CC#Cc1cc(N2C3CCC2CC3)ccc1NC(=O)C1CNc2cc(C#N)ccc2O1 (centres unmarked) [Compound 43, N-(4-(7-azabicyclo[2.2.1]heptan-7-yl)-2-(3-(dimethylamino)prop-1-ynyl)phenyl)-6-cyano-3,4-dihydro-2H-benzo[b][1,4]oxazine-2-carboxamide] | – | < 5
47 | Cc1ccc(NC(=O)C2CNc3cc(OC(F)(F)F)ccc3O2)c(C#CCN2CCC(F)(F)C2)c1 (centres unmarked) [Compound 45] | 25 to 100 | < 5
48 | O=C(Nc1ccc(OC(F)(F)F)c(O)c1)C1CNc2ccc(F)cc2O1 (centres unmarked) [Compound 47] | 25 to 100 | < 5
49 | Cc1ccc(NC(=O)C2CNc3cc(C)ccc3O2)c(C#CCN(C)C)c1 (centres unmarked) [Compound 48] | 25 to 100 | < 5
50 | CC(C)(C)c1ccc(NC(=O)C2CNc3cc(F)c(F)cc3O2)cc1O (centres unmarked) [Compound 49] | 25 to 100 | < 5
51 | N#Cc1ccc2c(c1)NCC(C(=O)Nc1cc(O)c(C3CCCC3)cc1CN1CCNCC1)O2 (centres unmarked) [Compound 51, 6-cyano-N-(4-cyclopentyl-5-hydroxy-2-(piperazin-1-ylmethyl)phenyl)-3,4-dihydro-2H-benzo[b][1,4]oxazine-2-carboxamide] | 25 to 100 | 5 to 20
52 | CN1CCN(Cc2cc(C3CCCC3)c(O)cc2NC(=O)C2CNc3ccccc3O2)CC1 (centres unmarked) [Compound 52, N-(4-cyclopentyl-5-hydroxy-2-((4-methylpiperazin-1-yl)methyl)phenyl)-3,4-dihydro-2H-benzo[b][1,4]oxazine-2-carboxamide] | 25 to 100 | < 5
53 | CC(C)CC#Cc1cc(C2CCCC2)c(O)cc1NC(=O)C1CNc2cc(OC(F)(F)F)ccc2O1 (centres unmarked) [Compound 53] | 25 to 100 | < 5
54 | O=C(Nc1cc(O)c(C2CCCC2)cc1C(F)(F)F)[C@@H]1CNc2cc(OC(F)(F)F)ccc2O1 [Compound 54] | 25 to 100 | < 5
